Biological target: Carbonic anhydrase 2 (Bos taurus, UniProt P00921)
Test: Carbonic Anhydrase (bCAII) Inhibition Assay
Conditions: pH 7.2
Procedure: This was assay performed using buffer containing Tris and HEPES at the pH of 7.2-7.9 and a total concentration of 20 mM. 96-well plates were filled with 140 µL of Tris-HEPES solution, 20 µL of bovine erythrocyte carbonic anhydrase II solution (0.1-0.2 mg/2000 mL), and 20 µL of 0.7 mM para-nitrophenyl acetate (diluted in ethanol). Test compounds were incubated at 25-28 °C for 15 min prior to addition of para-nitrophenyl acetate, which starts the reaction. The reaction was allowed to taking place for 30 min at 25-28 °C. All compounds tested in triplicate at different concentration. The amount of product that forms during thereaction monitored at 400 nm after 30 min using SPECTRA-max 340 spectrophotometer, Molecular Devices (USA).

Chain of Carbonic anhydrase 2 (P00921 whole entry): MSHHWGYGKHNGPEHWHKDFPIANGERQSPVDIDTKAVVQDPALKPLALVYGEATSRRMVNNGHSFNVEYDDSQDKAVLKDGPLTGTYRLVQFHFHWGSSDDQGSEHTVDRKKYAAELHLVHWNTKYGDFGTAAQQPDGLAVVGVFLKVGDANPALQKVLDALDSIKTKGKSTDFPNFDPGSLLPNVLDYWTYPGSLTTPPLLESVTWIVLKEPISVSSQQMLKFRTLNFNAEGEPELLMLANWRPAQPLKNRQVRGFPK

Row | Compound | IC50 [µM]
1 | O=[N+]([O-])c1ccc(S(=O)(=O)Nc2ccc(C(c3c[nH]c4ccc(Cl)cc34)c3c[nH]c4ccc(Cl)cc34)cc2)c([N+](=O)[O-])c1 [N-(4-(bis(5-chloro-1H-indol-3-yl)methyl)phenyl)-2,4-dinitrobenzenesulfonamide (5g)] | 15.6
2 | O=[N+]([O-])c1cc(S(=O)(=O)Nc2ccc(C(c3c[nH]c4ccc(Cl)cc34)c3c[nH]c4ccc(Cl)cc34)cc2)ccc1Cl [N-(4-(bis(5-chloro-1H-indol-3-yl)methyl)phenyl)-4-chloro-3-nitrobenzenesulfonamide (5h)] | 68.9
3 | Cc1ccc([N+](=O)[O-])cc1S(=O)(=O)Nc1ccc(C(c2c[nH]c3ccc(Br)cc23)c2c[nH]c3ccc(Br)cc23)cc1 [N-(4-(bis(5-bromo-1H-indol-3-yl)methyl)phenyl)-2-methyl-5-nitrobenzenesulfonamide (4i)] | 44.3
4 | COc1ccc(Cl)cc1S(=O)(=O)Nc1ccc(C(c2c[nH]c3ccc(Cl)cc23)c2c[nH]c3ccc(Cl)cc23)cc1 [N-(4-(bis(5-chloro-1H-indol-3-yl)methyl)phenyl)-5-chloro-2-methoxybenzene sulfonamide (5e)] | 176
5 | O=S(=O)(Nc1ccc(C(c2c[nH]c3ccc(Cl)cc23)c2c[nH]c3ccc(Cl)cc23)cc1)c1cc(Cl)cc(Cl)c1O [N-(4-(bis(5-chloro-1H-indol-3-yl)methyl)phenyl)-3,5-dichloro-2-hydroxybenzenesulfonamide (5k)] | 20.2
6 | O=[N+]([O-])c1ccc(S(=O)(=O)Nc2ccc(C(c3c[nH]c4ccc(Br)cc34)c3c[nH]c4ccc(Br)cc34)cc2)cc1 [N-(4-(bis(5-bromo-1H-indol-3-yl)methyl)phenyl)-4-nitrobenzenesulfonamide (4b)] | 63.9
7 | O=[N+]([O-])c1ccccc1S(=O)(=O)Nc1ccc(C(c2c[nH]c3ccc(Br)cc23)c2c[nH]c3ccc(Br)cc23)cc1 [N-(4-(bis(5-bromo-1H-indol-3-yl)methyl)phenyl)-2-nitrobenzenesulfonamide (4d)] | 65.2
8 | O=[N+]([O-])c1ccccc1S(=O)(=O)Nc1ccc(C(c2c[nH]c3ccc(Cl)cc23)c2c[nH]c3ccc(Cl)cc23)cc1 [N-(4-(bis(5-chloro-1H-indol-3-yl)methyl)phenyl)-2-nitrobenzenesulfonamide (5d)] | 44.5
9 | O=S(=O)(Nc1ccc(C(c2c[nH]c3ccc(Br)cc23)c2c[nH]c3ccc(Br)cc23)cc1)c1ccc2ccccc2c1 [N-(4-(bis(5-bromo-1H-indol-3-yl)methyl)phenyl)naphthalene-2-sulfonamide (4c)] | 90.4
10 | O=S(=O)(Nc1ccc(C(c2c[nH]c3ccc(Cl)cc23)c2c[nH]c3ccc(Cl)cc23)cc1)c1ccc(Cl)cc1 [N-(4-(bis(5-chloro-1H-indol-3-yl)methyl)phenyl)-4-chlorobenzenesulfonamide (5l)] | 45.5
11 | Cc1ccc([N+](=O)[O-])cc1S(=O)(=O)Nc1ccc(C(c2c[nH]c3ccc(Cl)cc23)c2c[nH]c3ccc(Cl)cc23)cc1 [N-(4-(bis(5-chloro-1H-indol-3-yl)methyl)phenyl)-2-methyl-5-nitrobenzenesulfonamide (5i)] | 14.3
12 | O=S(=O)(Nc1ccc(C(c2c[nH]c3ccc(Cl)cc23)c2c[nH]c3ccc(Cl)cc23)cc1)c1cc(Cl)c(Cl)cc1Cl [N-(4-(bis(5-chloro-1H-indol-3-yl)methyl)phenyl)-2,4,5-trichlorobenzenesulfonamide (5f)] | 16.3
13 | O=[N+]([O-])c1cc(S(=O)(=O)Nc2ccc(C(c3c[nH]c4ccc(Br)cc34)c3c[nH]c4ccc(Br)cc34)cc2)ccc1Cl [N-(4-(bis(5-bromo-1H-indol-3-yl)methyl)phenyl)-4-chloro-3-nitrobenzenesulfonamide (4h)] | 83.1
14 | O=S(=O)(Nc1ccc(C(c2c[nH]c3ccc(Br)cc23)c2c[nH]c3ccc(Br)cc23)cc1)c1cc(Cl)cc(Cl)c1O [N-(4-(bis(5-bromo-1H-indol-3-yl)methyl)phenyl)-3,5-dichloro-2-hydroxybenzenesulfonamide (4k)] | 18.8
15 | O=S(=O)(Nc1ccc(C(c2c[nH]c3ccc(Br)cc23)c2c[nH]c3ccc(Br)cc23)cc1)c1cc(Cl)c(Cl)cc1Cl [N-(4-(bis(5-bromo-1H-indol-3-yl)methyl)phenyl)-2,4,5-trichlorobenzenesulfonamide (4f)] | 40.3
16 | O=[N+]([O-])c1ccccc1S(=O)(=O)Nc1ccc(C(c2c[nH]c3ccccc23)c2c[nH]c3ccccc23)cc1 [N-(4-(di(1H-indol-3-yl)methyl)phenyl)-2-nitrobenzenesulfonamide (3d)] | 35.9
17 | O=[N+]([O-])c1ccc(S(=O)(=O)Nc2ccc(C(c3c[nH]c4ccc(Br)cc34)c3c[nH]c4ccc(Br)cc34)cc2)c([N+](=O)[O-])c1 [N-(4-(bis(5-bromo-1H-indol-3-yl)methyl)phenyl)-2,4-dinitrobenzenesulfonamide (4g)] | 28.9
18 | O=S(=O)(Nc1ccc(C(c2c[nH]c3ccccc23)c2c[nH]c3ccccc23)cc1)c1cc(Cl)cc(Cl)c1O [3,5-Dichloro-N-(4-(di(1H-indol-3-yl)methyl)phenyl)-2-hydroxybenzenesulfonamide (3k)] | 58.1

Source: BindingDB's records for doi:10.1016/j.bioorg.2016.07.011 (Universiti Teknologi Mara (Uitm), 2016)
